# The supplement of paper PMC10307832
# What was measured:
# Experiment in all cases: relative viability (nuclei count vs DMSO), 5 days (fraction); higher = more cells survive
# [1] = compound: CC1=CC(=CC=C1)NC2=NC(=CS2)C3=CC=NC=C3 + COc1cccc2cc(-c3nc([C@H]4CC[C@H](C(=O)O)CC4)n4ncnc(N)c34)[nH]c12 [OSI-027] (partner 0.5 µM)
# In short: (§1)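 Nuclei were stained with Hoechst during a one-step fixation (final 0.05% Triton X-100, 1% formaldehyde, 1 ug/ml Hoechst) carried out 5 days after dosing, then counted on 4× images. The cells, lung cancer lines in 1536-well plates, had been dosed by pin tool the day after seeding with one drug alone or a fixed anchor-drug dose plus five library-drug doses (not always all listed) in √10 steps. Relative viability is the nuclei count in treated wells divided by that in vehicle wells, and each value is the median of duplicate plates.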
# [2] = compound: CC1=CC(=CC=C1)NC2=NC(=CS2)C3=CC=NC=C3 + CS(=O)(=O)N1CCN(Cc2cc3nc(-c4cccc5[nH]ncc45)nc(N4CCOCC4)c3s2)CC1 [Pictilisib] (partner 1 µM)
# In short: as §1
# Masitinib + Lapatinib = compound: Cc1ccc(NC(=O)c2ccc(CN3CCN(C)CC3)cc2)cc1Nc1nc(-c2cccnc2)cs1 [Masitinib] + CS(=O)(=O)CCNCc1ccc(-c2ccc3ncnc(Nc4ccc(OCc5cccc(F)c5)c(Cl)c4)c3c2)o1 [Lapatinib] (partner 2 µM)
# In short: as §1
# Masitinib + Dasatinib = compound: Cc1ccc(NC(=O)c2ccc(CN3CCN(C)CC3)cc2)cc1Nc1nc(-c2cccnc2)cs1 [Masitinib] + Cc1nc(Nc2ncc(C(=O)Nc3c(C)cccc3Cl)s2)cc(N2CCN(CCO)CC2)n1 [Dasatinib] (partner 0.075 µM)
# In short: as §1
Cell Line,relative viability ([1]; first compound 0.08 µM),relative viability ([1]; first compound 0.253 µM),relative viability ([1]; first compound 0.8 µM),relative viability ([1]; first compound 2.53 µM),relative viability ([1]; first compound 8 µM),relative viability ([2]; first compound 0.08 µM),relative viability ([2]; first compound 0.253 µM),relative viability ([2]; first compound 0.8 µM),relative viability ([2]; first compound 2.53 µM),relative viability ([2]; first compound 8 µM),relative viability (Masitinib + Lapatinib; first compound 0.01 µM),relative viability (Masitinib + Lapatinib; first compound 0.1 µM),relative viability (Masitinib + Lapatinib; first compound 0.3162 µM),relative viability (Masitinib + Lapatinib; first compound 1 µM),relative viability (Masitinib + Dasatinib; first compound 0.01 µM),relative viability (Masitinib + Dasatinib; first compound 0.03162 µM),relative viability (Masitinib + Dasatinib; first compound 0.1 µM),relative viability (Masitinib + Dasatinib; first compound 0.3162 µM),relative viability (Masitinib + Dasatinib; first compound 1 µM),relative viability (Masitinib + Lapatinib; first compound 0.03162 µM)
NCI-H520,0.259,0.252,0.302,0.193,0.251,0.281,0.346,0.301,0.278,0.299,0.949,0.944,0.82,0.917,0.245,0.225,0.247,0.292,0.215,–
EKVX,0.538,0.699,0.619,0.628,0.636,0.374,0.391,0.344,0.32,0.346,–,0.198,0.158,0.196,0.557,0.387,0.535,0.464,0.41,0.165
SK-MES-1,0.517,0.484,0.549,0.714,0.511,0.275,0.276,0.341,0.358,0.346,0.473,0.518,0.386,0.45,0.319,0.359,0.392,0.286,0.335,0.426
EPLC-272H,0.243,0.274,0.258,0.27,0.281,0.265,–,0.292,–,0.344,0.948,0.951,0.914,0.827,0.509,0.416,0.337,0.373,0.242,0.898
NCI-H1650,0.619,0.508,0.625,0.472,0.227,0.536,0.517,0.621,0.419,0.208,0.607,0.746,0.774,0.612,0.366,0.32,0.348,0.276,0.27,0.761
NCI-H1395,0.555,0.567,0.663,0.505,0.638,0.569,0.602,0.531,0.627,0.697,1.37,1.39,0.982,0.81,0.415,0.404,0.404,0.395,0.426,1.16
NCI-H2228,0.375,0.463,0.517,0.472,0.398,0.413,0.431,0.281,0.453,0.359,0.972,1.14,1.38,1.06,0.544,0.461,0.729,0.523,0.425,1.32
NCI-H2023,0.337,0.269,0.376,0.228,0.207,0.161,0.177,0.215,0.175,0.18,0.628,0.73,0.559,0.776,0.551,0.602,0.543,0.395,0.513,0.823
NCI-H3122,0.824,1.03,1.12,1.09,0.969,0.648,0.632,0.667,0.727,0.83,1.01,1.02,1.04,1,0.512,0.724,0.61,0.615,0.916,1.04
NCI-H1792,0.541,–,0.613,0.443,0.401,0.155,0.198,0.219,0.162,0.24,0.721,0.874,0.846,0.995,0.757,0.342,0.83,0.718,1.32,0.405
HCC-78,–,0.371,0.392,0.308,0.435,0.204,0.198,0.261,0.219,0.22,0.871,0.743,0.334,0.625,0.468,0.312,0.392,0.468,0.366,0.62
LOU-NH91,0.552,0.642,0.651,0.648,0.711,0.482,0.382,0.464,0.44,0.468,0.781,0.786,0.563,0.708,0.557,0.511,0.54,0.442,0.546,0.633
NCI-H322M,0.418,0.508,0.574,0.519,0.565,0.446,0.452,0.372,0.495,0.622,0.55,0.573,0.603,0.53,0.259,0.286,0.236,0.236,0.253,0.623
HCC-827,0.702,0.755,0.693,0.809,0.732,0.72,0.875,1.12,0.895,0.812,0.198,0.19,0.168,0.201,0.269,0.286,0.275,0.314,0.293,0.189
SW 1573,0.569,0.593,0.723,0.561,0.536,0.473,0.454,0.521,0.57,0.488,0.986,1.2,0.73,0.987,0.452,0.463,0.526,0.52,0.476,1.17
NCI-H1993,0.523,0.524,0.586,0.576,0.56,0.804,0.907,0.788,0.822,0.779,0.438,0.913,0.776,0.678,0.554,0.508,0.577,0.532,0.52,–
